{"source": "patent US20130165489A1", "about": "“Small Molecule Modulators of HIV-1 Capsid Stability and Methods Thereof” (The Trustees of the University of Pennsylvania, priority 2010, published 2013)", "key": {"[1]": {"test_system": "HIV-1 BCF02 (group O clinical isolate)", "experiment": "Anti-HIV efficacy in human PBMCs, isolate BCF02", "format": "cell-based", "procedure": "(§1) HIV human peripheral blood mononuclear cell (PBMC) assays were performed as described previously (Lanier et al., 2010, Antimicrob. Agents Chemother. 54:2901-09; Ptak et al., 2008, Antimicrob. Agents Chemother. 52:1302-17). Briefly, fresh PBMCs, seronegative for HIV and hepatitis B virus (HBV), were isolated from blood samples of the screened donors (Biological Specialty Corporation, Colmar, Pa.) by using lymphocyte separation medium (LSM; density, 1.078±0.002 g/ml; Cellgro; Mediatech, Inc.) by following the manufacturer's instructions. Cells were stimulated by incubation in 4 μg/mL phytohemagglutinin (PHA; Sigma) for 48 to 72 h. Mitogenic stimulation was maintained by the addition of 20 U/mL recombinant human interleukin-2 (rhIL-2; R&D Systems, Inc.) to the culture medium. PHA-stimulated PBMCs from at least two donors were pooled, diluted in fresh medium, and added to 96-well plates at 5×10^4 cells/well. Cells were infected (final multiplicity of infection [MOI] of ≅0.1) in the presence of 9 different concentrations of test compounds (triplicate wells/concentration) and incubated for 7 days. […] Following removal of supernatant samples, compound cytotoxicity was measured by the addition of 3-(4,5-dimethylthiazol-2-yl)-5-(3-carboxymethoxyphenyl)-2-(4-sulfophenyl)-2H-tetrazolium (MTS; CellTiter 96 reagent; Promega) by following the manufacturer's instructions. […]"}, "[2]": {"test_system": "YFV", "experiment": "microbe, parasite or virus in culture", "format": "cell-based, yellow fever virus"}, "[3]": {"biological_target": "HIV-1 CA (Human immunodeficiency virus type 1 group M subtype B, UniProt P12493)", "experiment": "In vitro CA assembly assay (turbidity)", "format": "biochemical", "conditions": "CA 30 μM; compound 147 μM; turbidity at 350 nm", "procedure": "The effect of compound CMPD-E on the assembly of HIV-1 CA was measured by monitoring turbidity at 350 nm using a modification of the method of Tian et al. (Tian et al., 2009, Bioorg. Med. Chem. Lett. 19:2162-67). Briefly, 1.0 μL of concentrated CMPD-E in 100% DMSO was added to a 74-μL aqueous solution (2 mL of 5 M NaCl mixed with 1 mL of 200 mM NaH2PO4, pH 8.0). To initiate the assembly reaction, 25 μL of purified CA protein (120 μM) was added. An identical reaction mixture was prepared, omitting the compound (i.e., DMSO only). Samples were allowed to equilibrate for 2 min prior to reading. Readings were taken at 350 nm every 10 s for 30 min. CA was used at a final concentration of 30 μM, and CMPD-E at a final concentration of 147 μM."}, "[4]": {"test_system": "RSV", "experiment": "CPE assay, RSV", "format": "cell-based, respiratory syncytial virus"}, "[5]": {"test_system": "Vaccinia", "experiment": "microbe, parasite or virus in culture", "format": "cell-based"}, "[6]": {"test_system": "HIV-1 92UG031 (subtype A clinical isolate)", "experiment": "Anti-HIV efficacy in human PBMCs, isolate 92UG031", "format": "cell-based", "procedure": "as §1"}, "[7]": {"conditions": "Human immunodeficiency virus 1, PBMC"}}, "note": "Entries after “also recorded” stand apart in the source; their conditions may differ."}
{"smiles": "O=C(O)c1ccc(-c2nc(-c3ccccc3)c(-c3ccccc3)[nH]2)cc1", "note": "[CMPD-E, 4-(4,5-diphenyl-1H-imidazol-2-yl)benzoic acid]", "values": [{"measurement": "IC50", "setting": "[1]; [7]", "value": 71.3, "unit": "µM"}, {"measurement": "Antiviral index (TC50/IC50)", "setting": "[1]; PBMC", "value": ">1.4"}, {"measurement": "IC50", "setting": "[2]; Yellow fever virus", "value": "> 100", "unit": "µM"}, {"measurement": "effect on yellow fever virus replication", "setting": "[2]; up to 100 μM", "value": "no inhibitory effects"}, {"measurement": "effect on assembly of HIV-1 CA in vitro", "setting": "[3]", "value": "prevents the assembly of the capsid; also recorded: prevented assembly of CA in vitro; also recorded: preventing the assembly of the capsid"}, {"measurement": "activity against RSV", "setting": "[4]; CPE assay, up to 100 μM", "value": "no inhibitory effects"}, {"measurement": "IC50", "setting": "[4]; human respiratory syncytial virus, RSV, Vero cells", "value": "> 100", "unit": "µM"}, {"measurement": "IC50", "setting": "[5]; Orthopoxvirus vaccinia", "value": "> 100", "unit": "µM"}, {"measurement": "effect on Vaccinia replication", "setting": "[5]; up to 100 μM", "value": "no inhibitory effects"}, {"measurement": "IC50", "setting": "[6]; [7]", "value": 93.6, "unit": "µM"}, {"measurement": "Antiviral index (TC50/IC50)", "setting": "[6]; PBMC", "value": ">1.07"}]}
